# Reference: patent US20030032879A1, “Microbubble formation using ultrasound” (priority 1997, published 2003)
# What was measured:
# [1] = tested on: dogs; conditions: cited from earlier work
# [2] = 760 mm Hg and 15° C., Gas Data Book; cited from earlier work
# [3] = Calculated change in dispersion size from liquid and gas densities; format: physicochemical; conditions: calculated from cubic root of volume
# Method: One can also calculate the expected change in dispersion size if one knows the relative densities of the dispersed liquid as a gas and liquid. For example, the Gas Data Book, by W Braker and A Mossman, Matheson, contains such data. Examining octafluorocyclobutane, one finds that 1 L of the liquid yields 188 L of gas at a pressure of 760 mm Hg and 15° C. Since the volume of a sphere is related to the diameter of a sphere by the cubic root of the volume, the phase transition for an octafluorobutane emulsion particle will cause a 5.7-fold increase in diameter.
# [4] = Acoustic backscatter (gray scale intensity) after injection into water beaker at 37° C.; conditions: 0.2 mL neat liquid (1111 micromoles) into 1000 mL water at 37° C.
# Method: The criticality that the low boiling liquid be present as a finely divided dispersion rather than as a neat liquid was determined by measuring the acoustic backscatter of the two states.
# Two solutions were prepared to simulate the administration to an organism of either a colloidal dispersion of a low boiling liquid or the liquid neat. These were scanned at 5.0 MHz with a Hewlett Packard Model 77020 ultrasound scanner and the images obtained recorded on Sony ES VHS tape. The analog images from the tape were then converted to a digital form using the software package Global Lab Image Software (Data Translation, Marlboro, Mass.). The gray scale intensity within a 4900 pixel (70×70 pixel-sized) region-of-interest was then measured before and after the injection of the colloidal dispersion of Example 19 and the same quantity of neat dodecafluoropentane into a 1000 mL water beaker equilibrated at 37° C.
# The measurements were performed on a gray scale of 2 to 254. […] The injection of 0.1 mL of this emulsion produced a change of intensity to 236 five seconds post-injection and 182 fifty-two seconds post-injection.
# The same experiment was performed with a 0.2 mL injection of neat dodecafluoropentane. This corresponds to 1111 micromoles of dodecafluoropentane, over 300-times the quantity in the experiment above. […]
# [5] = Interfacial tension against dodecafluoropentane, Kruss Drop Volume Tensiometer; format: physicochemical; conditions: Pluronic P-123 / F-127 mixtures, 4° C.
smiles,measurement,setting,value
CCOCC [ether],toxicity,[1]; Injections of 20 mL,fatal
same,contrast effect on Doppler signal,"[1]; intraarterial, detected five cm below injection site",greatest contrast effect
FC1(F)C(F)(F)C(F)(F)C1(F)F [octafluorocyclobutane],gas volume from 1 L of the liquid,[2],188 L
same,increase in diameter of emulsion particle on phase transition,[3],5.7 fold
FC(F)(F)C(F)(F)C(F)(F)C(F)(F)C(F)(F)F [dodecafluoropentane],image intensity (gray scale of 2 to 254),[4]; fifty-two seconds post-injection,5.0
same,image intensity (gray scale of 2 to 254),[4]; five seconds post-injection,7.7
same,HLB from graphed interfacial tension data,[5],about 14
